The source of these data is US7888363B2, “Viral polymerase inhibitors” (Boehringer Ingelheim International GmbH, priority 2003, dated 2011).

Usually pIC50 stands for −log10 of the IC50, conventionally taken in molar units. A higher pIC50 goes with a small IC50.

pIC50: −log10 of the molar value.

hepatitis C virus RNA dependant polymerase (NS5B), sequence (P26663 2420-3010): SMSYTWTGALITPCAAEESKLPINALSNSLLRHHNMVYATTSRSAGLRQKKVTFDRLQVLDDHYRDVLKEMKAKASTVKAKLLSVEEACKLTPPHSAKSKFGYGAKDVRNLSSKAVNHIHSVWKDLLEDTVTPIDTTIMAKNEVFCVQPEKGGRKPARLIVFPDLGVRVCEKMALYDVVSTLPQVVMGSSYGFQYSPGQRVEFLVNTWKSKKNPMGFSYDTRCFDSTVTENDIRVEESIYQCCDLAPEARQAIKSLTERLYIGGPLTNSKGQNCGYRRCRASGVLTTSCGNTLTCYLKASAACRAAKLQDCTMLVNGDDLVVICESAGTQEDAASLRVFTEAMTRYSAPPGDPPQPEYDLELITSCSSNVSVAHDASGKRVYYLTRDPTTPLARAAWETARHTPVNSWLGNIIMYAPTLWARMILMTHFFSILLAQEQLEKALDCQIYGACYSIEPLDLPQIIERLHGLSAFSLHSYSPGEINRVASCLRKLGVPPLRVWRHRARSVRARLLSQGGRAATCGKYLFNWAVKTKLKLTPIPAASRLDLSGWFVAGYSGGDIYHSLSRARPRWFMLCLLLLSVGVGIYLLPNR

The experiment addresses hepatitis C virus RNA dependant polymerase (NS5B) (Hepatitis C virus genotype 1b, UniProt P26663). Nature of the experiment: Inhibition of NS5B RNA dependent RNA polymerase activity. The class given is biochemical. The settings on record: Table 1; HCV NS5B polymerase. How it is done: A suitable assay is described in the examples.
Inhibition of NS5B RNA Dependent RNA Polymerase Activity
The compounds of the invention were tested for inhibitory activity against the hepatitis C virus RNA dependant polymerase (NS5B), according to protocol described in WO 03/010141
`O=C(Cn1c(-c2ccoc2)c(C2CCCCC2)c2ccc(C(=O)O)cc21)Nc1cccc(C(=O)O)c1` [Example 1070] had a pIC50 of 6.00 to 6.70. Then `O=C(O)/C=C/c1ccc(NC(=O)Cn2c(-c3ccoc3)c(C3CCCCC3)c3ccc(C(=O)O)cc32)cc1` [Example 1071], with 6.00 to 6.70; and `CN(CC(=O)O)C(=O)Cn1c(-c2ccoc2)c(C2CCCCC2)c2ccc(C(=O)O)cc21` [Example 1072], with over 6.70; and `O=C(O)CCNC(=O)Cn1c(-c2ccoc2)c(C2CCCCC2)c2ccc(C(=O)O)cc21` [Example 1073], with over 6.70. In the case of `O=C(O)CN1CCN(C(=O)Cn2c(-c3ccoc3)c(C3CCCCC3)c3ccc(C(=O)O)cc32)CC1` [Example 1074] it was over 6.70. In the case of `O=C(Cn1c(-c2ccoc2)c(C2CCCCC2)c2ccc(C(=O)O)cc21)NCc1ccc(C(=O)O)cc1` [Example 1075] it was over 6.70; in that of `O=C(Cn1c(-c2ccoc2)c(C2CCCCC2)c2ccc(C(=O)O)cc21)NNC(=O)NC[C@H]1CC[C@H](C(=O)O)CC1` [Example 1076], over 6.70.

`O=C(O)/C=C/c1ccc(NC(=O)[C@]2(NC(=O)Cn3c(-c4ccoc4)c(C4CCCCC4)c4ccc(C(=O)O)cc43)CCNC2)cc1` [Example 1077] had a pIC50 of over 6.70.

Turning to `O=C(O)/C=C/c1ccc(NC(=O)[C@@]2(NC(=O)Cn3c(-c4ccoc4)c(C4CCCCC4)c4ccc(C(=O)O)cc43)CCNC2)cc1` [Example 1079], the pIC50 was over 6.70. In the case of `O=C(O)/C=C/c1ccc(NC(=O)C2(NC(=O)Cn3c(-c4ccoc4)c(C4CCCCC4)c4ccc(C(=O)O)cc43)CCNCC2)cc1` [Example 1080] it was over 6.70; in that of `O=C(Cn1c(-c2ccoc2)c(C2CCCCC2)c2ccc(C(=O)O)cc21)N[C@@H](Cc1c[nH]c2ccc(O)cc12)C(=O)O` [Example 1081], over 6.70. In the case of `CN1CCN(C(=O)Cn2c(-c3ccccn3)c(C3CCCCC3)c3ccc(C(=O)O)cc32)CC1` [Example 1082] it was over 6.70.

`CC(C)(NC(=O)Cn1c(-c2ccccn2)c(C2CCCCC2)c2ccc(C(=O)O)cc21)C(=O)Nc1ccc(/C=C/C(=O)O)cc1` [Example 1083]: the pIC50 was 6.00 to 6.70.

In turn, `O=C(O)c1ccc2c(C3CCCCC3)c(-c3ccccn3)n(CC(=O)N3CCCC3)c2c1` [Example 1084] gave a pIC50 of 6.00 to 6.70. Then `O=C(O)c1ccc2c(C3CCCCC3)c(-c3ccccn3)n(CC(=O)N3CCCCC3)c2c1` [Example 1085], with 6.00 to 6.70. In the case of `O=C(O)c1ccc2c(C3CCCC3)c(-c3ccccn3)n(CC(=O)N3CCCC3)c2c1` [Example 1086] it was 6.00 to 6.70. In the case of `O=C(O)c1ccc2c(C3CCCC3)c(-c3ccccn3)n(CC(=O)N3CCCCC3)c2c1` [Example 1087] it was 6.00 to 6.70; in that of `O=C(Cn1c(-c2ccoc2)c(C2CCCCC2)c2ccc(C(=O)O)cc21)NC1CCCCC1` [Example 1088], 6.00 to 6.70; in that of `O=C(Cn1c(-c2ccoc2)c(C2CCCCC2)c2ccc(C(=O)O)cc21)NCC1CCCCC1` [Example 1089], 6.00 to 6.70. For `CN(CCO)C(=O)Cn1c(-c2ccoc2)c(C2CCCCC2)c2ccc(C(=O)O)cc21` [Example 1090], the pIC50 was over 6.70. In the case of `CC(C)N(C(=O)Cn1c(-c2ccoc2)c(C2CCCCC2)c2ccc(C(=O)O)cc21)C1CCCCC1` [Example 1091] it was 6.00 to 6.70; in that of `CN(C(=O)Cn1c(-c2ccoc2)c(C2CCCCC2)c2ccc(C(=O)O)cc21)C1CCCCC1` [Example 1092], over 6.70; in that of `CCN(C(=O)Cn1c(-c2ccoc2)c(C2CCCCC2)c2ccc(C(=O)O)cc21)C1CCCCC1` [Example 1093], 6.00 to 6.70. In the case of `O=C(O)c1ccc2c(C3CCCCC3)c(-c3ccoc3)n(CC(=O)N3CCCC3)c2c1` [Example 1094] it was over 6.70; in that of `O=C(O)c1ccc2c(C3CCCCC3)c(-c3ccoc3)n(CC(=O)N3CCN(c4ccccc4)CC3)c2c1` [Example 1095], 6.00 to 6.70; in that of `O=C(O)c1ccc2c(C3CCCCC3)c(-c3ccoc3)n(CC(=O)N3CCN(CCO)CC3)c2c1` [Example 1096], over 6.70. In the case of `O=C(O)c1ccc2c(C3CCCCC3)c(-c3ccoc3)n(CC(=O)N3CCOCC3)c2c1` [Example 1097] it was over 6.70; in that of `O=C(O)c1ccc2c(C3CCCCC3)c(-c3ccoc3)n(CC(=O)N3CCCC(C(=O)O)C3)c2c1` (centres unmarked) [Example 1099], over 6.70. `O=C(O)c1ccc2c(C3CCCCC3)c(-c3ccoc3)n(CC(=O)N3CCC(O)CC3)c2c1` [Example 1100] gave a pIC50 of over 6.70. Then `CC1CCN(C(=O)Cn2c(-c3ccoc3)c(C3CCCCC3)c3ccc(C(=O)O)cc32)CC1` [Example 1101], with 6.00 to 6.70.

In turn, `O=C(O)c1ccc2c(C3CCCCC3)c(-c3ccoc3)n(CC(=O)N3CCC(CCO)CC3)c2c1` [Example 1102] gave a negative-log IC50 (pIC50) of over 6.70. In the case of `CN(CCc1ccccn1)C(=O)Cn1c(-c2ccoc2)c(C2CCCCC2)c2ccc(C(=O)O)cc21` [Example 1103] it was over 6.70. In the case of `CN1CCC(N(C)C(=O)Cn2c(-c3ccoc3)c(C3CCCCC3)c3ccc(C(=O)O)cc32)CC1` [Example 1104], the pIC50 was over 6.70. Then `CN(C)c1ccc(NC(=O)Cn2c(-c3ccoc3)c(C3CCCCC3)c3ccc(C(=O)O)cc32)cc1` [Example 1105], with 6.00 to 6.70; and `CC(C)NC(=O)Cn1c(-c2ccoc2)c(C2CCCCC2)c2ccc(C(=O)O)cc21` [Example 1106], with 6.00 to 6.70.

As to `COCCNC(=O)Cn1c(-c2ccoc2)c(C2CCCCC2)c2ccc(C(=O)O)cc21` [Example 1107], the pIC50 was 6.00 to 6.70.

In turn, `CC(C)N(C(=O)Cn1c(-c2ccoc2)c(C2CCCCC2)c2ccc(C(=O)O)cc21)C(C)C` [Example 1108] gave a pIC50 of 6.00 to 6.70. With `O=C(O)CN(Cc1ccccc1)C(=O)Cn1c(-c2ccoc2)c(C2CCCCC2)c2ccc(C(=O)O)cc21` [Example 1109], the pIC50 is 6.00 to 6.70. Then `CC(=O)NNC(=O)Cn1c(-c2ccoc2)c(C2CCCCC2)c2ccc(C(=O)O)cc21` [Example 1110], with over 6.70; and `CN(C)C(=O)Cn1c(-c2ccoc2)c(C2CCCCC2)c2ccc(C(=O)O)cc21` [Example 1111], with over 6.70. Molecule `CN(C)CCN(C)C(=O)Cn1c(-c2ccoc2)c(C2CCCCC2)c2ccc(C(=O)O)cc21` [Example 1112] showed a pIC50 of over 6.70. In the case of `O=C(Cn1c(-c2ccoc2)c(C2CCCCC2)c2ccc(C(=O)O)cc21)NCC1CCCO1` (centres unmarked) [Example 1113] it was 6.00 to 6.70. In the case of `CN(Cc1cccnc1)C(=O)Cn1c(-c2ccoc2)c(C2CCCCC2)c2ccc(C(=O)O)cc21` [Example 1114] it was 6.00 to 6.70; in that of `Cc1ccccc1N(C)C(=O)Cn1c(-c2ccoc2)c(C2CCCCC2)c2ccc(C(=O)O)cc21` [Example 1115], 5.00 to 6.00. With `O=C(O)c1ccc2c(C3CCCCC3)c(-c3ccoc3)n(CC(=O)N3CCC(N4CCCC4)CC3)c2c1` [Example 1116], the pIC50 was over 6.70.

Regarding `O=C(Cc1ccccc1)NNC(=O)Cn1c(-c2ccoc2)c(C2CCCCC2)c2ccc(C(=O)O)cc21` [Example 1117], the negative-log IC50 (pIC50) was 6.00 to 6.70. In the case of `CC(C)N(C)C(=O)Cn1c(-c2ccoc2)c(C2CCCCC2)c2ccc(C(=O)O)cc21` [Example 1118] it was over 6.70; in that of `CCC(NC(=O)Cn1c(-c2ccoc2)c(C2CCCCC2)c2ccc(C(=O)O)cc21)C(=O)O` (centres unmarked) [Example 1119], over 6.70.

The molecule `CCN1CCN(C(=O)Cn2c(-c3ccoc3)c(C3CCCCC3)c3ccc(C(=O)O)cc32)CC1` [Example 1120] gave a pIC50 of over 6.70. Then `CN(C)C(=O)CN(C)C(=O)Cn1c(-c2ccoc2)c(C2CCCCC2)c2ccc(C(=O)O)cc21` [Example 1121], with over 6.70; and `CN(C)C(=O)[C@@H]1CCCN1C(=O)Cn1c(-c2ccoc2)c(C2CCCCC2)c2ccc(C(=O)O)cc21` [Example 1122], with over 6.70. Then `O=C(O)c1ccc2c(C3CCCCC3)c(-c3ccoc3)n(CC(=O)N3CCC[C@@H]3C(=O)O)c2c1` [Example 1123], with 6.00 to 6.70.

Take `COCCN(C)C(=O)Cn1c(-c2ccoc2)c(C2CCCCC2)c2ccc(C(=O)O)cc21` [Example 1124]: the negative logarithm of the IC50 (pIC50) was 6.00 to 6.70. `CC(C)N1CCN(C(=O)Cn2c(-c3ccoc3)c(C3CCCCC3)c3ccc(C(=O)O)cc32)CC1` [Example 1125] had a pIC50 of over 6.70. In the case of `COCCN1CCN(C(=O)Cn2c(-c3ccoc3)c(C3CCCCC3)c3ccc(C(=O)O)cc32)CC1` [Example 1126] it was over 6.70; in that of `CS(=O)(=O)c1ccc(CNC(=O)Cn2c(-c3ccoc3)c(C3CCCCC3)c3ccc(C(=O)O)cc32)cc1` [Example 1127], over 6.70. Then `O=C(O)c1ccc2c(C3CCCCC3)c(-c3ccoc3)n(CC(=O)N3C[C@@H](O)C[C@H]3C(=O)O)c2c1` [Example 1128], with over 6.70; and `CC(C)[C@@H](C(=O)O)N(C)C(=O)Cn1c(-c2ccoc2)c(C2CCCCC2)c2ccc(C(=O)O)cc21` [Example 1129], with over 6.70.

`CN(C)C(=O)CN1CCN(C(=O)Cn2c(-c3ccoc3)c(C3CCCCC3)c3ccc(C(=O)O)cc32)CC1` [Example 1130] gave a pIC50 of over 6.70. In the case of `CN(C)C1CCN(C(=O)Cn2c(-c3ccoc3)c(C3CCCCC3)c3ccc(C(=O)O)cc32)C1` (centres unmarked) [Example 1131] it was over 6.70; in that of `CN(C)CC(=O)NNC(=O)Cn1c(-c2ccoc2)c(C2CCCCC2)c2ccc(C(=O)O)cc21` [Example 1132], over 6.70; in that of `O=C(Cn1c(-c2ccc(Br)cn2)c(C2CCCCC2)c2ccc(C(=O)O)cc21)N[C@@H](Cc1ccc(O)cc1)C(=O)O` [Example 1133], 6.00 to 6.70. In the case of `CN1CCN(C(=O)Cn2c(-c3ccc(Br)cn3)c(C3CCCCC3)c3ccc(C(=O)O)cc32)CC1` [Example 1134] it was 6.00 to 6.70.

Regarding `O=C(O)c1ccc2c(C3CCCCC3)c(-c3ccc(Br)cn3)n(CC(=O)N3CCC(C(=O)O)CC3)c2c1` [Example 1135], the pIC50 was 6.00 to 6.70. Then `CN(C)C(=O)Cn1c(-c2ccc(Br)cn2)c(C2CCCCC2)c2ccc(C(=O)O)cc21` [Example 1136], with 6.00 to 6.70.
